From ChEMBL document CHEMBL3611984, “Isolation and anticancer, anthelminthic, and antiviral (HIV) activity of acylphloroglucinols, and regioselective synthesis of empetrifranzinans from Hypericum roeperianum” (Bioorg Med Chem, 2015) come the findings set out here.

pEC50: −log10 of the molar value. Activity calls are given as the source filed them. The rule behind the calls is not given here.

In one data set the test system is Escherichia coli. In words: Antibacterial activity against Escherichia coli DSM 1103. Type of data set: functional.
In data set [1] the test system is PC-3. The experiment in a line: Cytotoxicity against human PC3 cells assessed as growth inhibition at 10 nM after 3 days by XTT assay relative to control. To be noted: PC-3, 72 h, read-out: GI. Type of data set: functional. A general note: Tetrazolium assays rely on reduction of a dye to a coloured formazan, in cell work by metabolically active cells.
The test system of data set [2] is Human immunodeficiency virus 1. In words: Antiviral activity against HIV1 3B infected in human MT4 cells assessed as protection against virus-induced cytopathogenicity after 4 days by MTT assay. It is filed as functional, organism-based. To be noted: Human immunodeficiency virus 1, 3B, MT4, 96 h.
The subject of the next data set is Staphylococcus aureus. In words: Antibacterial activity against Staphylococcus aureus DSM 2569. It is filed as functional.
The subject of data set [3] is HT-29. In words: Cytotoxicity against human HT-29 cells assessed as growth inhibition at 10 nM after 3 days by XTT assay. It is filed as functional, cell-based.
The test system of a further data set is Enterococcus faecalis. In words: Antibacterial activity against Enterococcus faecalis DSM 2570. Type of data set: functional.
Data set [4] relates to PC-3. The experiment in a line: Cytotoxicity against human PC3 cells assessed as growth inhibition at 10 uM after 3 days by XTT assay relative to control. It is filed as functional. To be noted: PC-3, 72 h, read-out: GI.
A short description of data set [5]: Cytotoxicity against mock-infected human MT4 cells assessed as reduction in cell viability after 96 hrs by MTT assay. It is filed as cell-based.
The test system of data set [6] is Caenorhabditis elegans. In words: Antihelmintic activity against Caenorhabditis elegans Bristol N2 assessed as mortality at 100 ug/ml after 30 mins by microscopic analysis (reference value: 3 +/- 3%). Type of data set: functional.
The test system of data set [7] is Caenorhabditis elegans. In words: Antihelmintic activity against Caenorhabditis elegans Bristol N2 assessed as mortality at 12.5 ug/ml after 30 mins by microscopic analysis. It is filed as functional, organism-based.
For data set [8], the system named is Caenorhabditis elegans. In words: Antihelmintic activity against Caenorhabditis elegans Bristol N2 assessed as mortality at 10 ug/ml after 30 mins by microscopic analysis (reference value: 3 +/- 3%). It is filed as functional, organism-based.
Data set [9] has as its system HT-29. In words: Cytotoxicity against human HT-29 cells assessed as growth inhibition at 125 uM after 3 days by XTT assay relative to control. Type of data set: functional. To be noted: HT-29, 72 h, read-out: GI.
Data set [10] deals with PC-3. In words: Cytotoxicity against human PC3 cells assessed as growth inhibition at 125 uM after 3 days by XTT assay relative to control. To be noted: PC-3, 72 h, read-out: GI. Type of data set: functional.

What is called MIC is the lowest concentration found to suppress growth. The term pEC50 denotes −log10 of the EC50, conventionally taken in molar units. A word on the CC50: it is the concentration that lowers cell viability or growth by half.

With `CCC(C)C(=O)c1c(O)cc2c3c1OC1(C)CCC(C3C1)C(C)(C)O2` (configuration not stated), the MIC in the data set on Escherichia coli, in the data set with Staphylococcus aureus and against Enterococcus faecalis was more than 1 µg/mL in each case. Moreover, the inhibition of growth at 0.01 µM in the data set with PC-3 [1] is less than 20%. The pEC50 in [2] is less than 4.00. Besides, in the data set on HT-29 [3], the “growth inhibition (GI)” value was “inactive”. Besides, in the data set with PC-3 [4], the inhibition of growth at 10 µM was less than 20%. The CC50 at 96 h in data set [5] was more than 100 µM.
In the case of `CC(C)=CCCC1(C)Oc2c(c(O)cc(O)c2C(=O)C(C)C)CC1O` (configuration not stated), the minimum inhibitory concentration (MIC) against Escherichia coli, with Staphylococcus aureus and in the data set on Enterococcus faecalis was more than 1 µg/mL each time. Further, the inhibition of growth at 0.01 µM with PC-3 [1] was less than 20%. Further, the pEC50 in data set [2] is less than 4.08. The “growth inhibition (GI)” value with HT-29 [3] is “inactive”. The inhibition of growth at 10 µM in the data set on PC-3 [4] was less than 20%. The CC50 at 96 h in [5] was 84 µM.
Consider `CC(C)C(=O)c1c(O)cc(O)c2c1O[C@]1(C)CC[C@@H](O)C(C)(C)[C@H]1C2` (relative stereo), for which the MIC against Escherichia coli, against Staphylococcus aureus and in the data set with Enterococcus faecalis was more than 1 µg/mL each time. The inhibition of growth at 0.01 µM in the data set on PC-3 [1] was less than 20%. The pEC50 in data set [2] was less than 4.39. Besides, the “growth inhibition (GI)” value in the data set on HT-29 [3] is “inactive”. In addition, the Activity with Caenorhabditis elegans [6] came out at 0.7%. Further, the outcome in the data set on Caenorhabditis elegans [7] was inactive. In addition, in the data set on PC-3 [4], the inhibition of growth at 10 µM is less than 20%. Besides, the cytotoxic concentration (CC50) at 96 h in data set [5] worked out at 41 µM.
Consider IVERMECTIN, for which the Activity in the data set on Caenorhabditis elegans [8] was 99%.
For the compound `C[C@@H]1CC[C@@]2(OC1)O[C@H]1[C@@H](O)[C@H]3[C@@H]4CC[C@H]5C[C@@H](O[C@@H]6O[C@H](CO)[C@H](O[C@@H]7O[C@H](CO)C(O)[C@H](O[C@@H]8OC[C@@H](O)[C@H](O)[C@H]8O)[C@H]7O[C@@H]7O[C@H](CO)[C@H](O)[C@H](O[C@@H]8O[C@H](CO)[C@@H](O)[C@H](O)[C@H]8O)[C@H]7O)[C@H](O)[C@H]6O)[C@H](O)C[C@]5(C)[C@H]4CC[C@]3(C)[C@H]1[C@@H]2C` (some centres not stated) [DIGITONIN], the inhibition of growth at 125 µM in the data set on HT-29 [9] and in the data set on PC-3 [10] was 100% in each case.
Consider `CCC(C)C(=O)c1c(O)cc2c3c1OC(C)(C)C1CCC(C)(CC31)O2` (configuration not stated) [EMPETRIFRANZINAN C], for which the MIC with Escherichia coli, against Staphylococcus aureus and in the data set on Enterococcus faecalis was more than 1 µg/mL each time. The inhibition of growth at 0.01 µM with PC-3 [1] was less than 20%. Further, in [2], the pEC50 was less than 4.35. For the same compound, the “growth inhibition (GI)” value in the data set on HT-29 [3] was “inactive”. Also, in the data set on PC-3 [4], the inhibition of growth at 10 µM stood at 20%. The CC50 at 96 h in data set [5] stood at 45 µM.
On to `CC(C)C(=O)c1c(O)cc2c3c1OC(C)(C)C1CCC(C)(CC31)O2` (configuration not stated), for which the CC50 at 96 h in data set [5] was found to be 18.7 µM.
As to `CC(C)=CCC/C(C)=C/Cc1c(O)cc(O)c(C(=O)c2ccccc2)c1O`, the MIC with Escherichia coli, in the data set on Staphylococcus aureus and in the data set with Enterococcus faecalis was more than 1 µg/mL each time. Besides, in the data set on PC-3 [1], the inhibition of growth at 0.01 µM was less than 20%. Also, the pEC50 in data set [2] was less than 4.16. In addition, in the data set with HT-29 [3], the “growth inhibition (GI)” value is “inactive”. The Activity with Caenorhabditis elegans [6] was found to be 0.7%. Moreover, the outcome in the data set with Caenorhabditis elegans [7] was inactive. In the data set with PC-3 [4], the inhibition of growth at 10 µM was less than 20%. In addition, the CC50 at 96 h in [5] was determined as 69 µM.
For the compound `CC(C)C(=O)c1c(O)cc2c3c1OC1(C)CCC(C3C1)C(C)(C)O2` (configuration not stated), the MIC in the data set on Escherichia coli, in the data set on Staphylococcus aureus and in the data set with Enterococcus faecalis was more than 1 µg/mL each time. Also, the inhibition of growth at 0.01 µM in the data set on PC-3 [1] is less than 20%. Moreover, in data set [2], the pEC50 was less than 4.00. Besides, the “growth inhibition (GI)” value in the data set on HT-29 [3] was “inactive”. Besides, the inhibition of growth at 10 µM in the data set with PC-3 [4] turned out to be 20%. The half-maximal cytotoxic concentration (CC50) at 96 h in data set [5] is more than 100 µM.
Consider `CC(C)=CCC/C(C)=C/Cc1c(O)cc(O)c(C(=O)C(C)C)c1O`, for which the MIC with Escherichia coli, in the data set with Staphylococcus aureus and in the data set with Enterococcus faecalis was more than 1 µg/mL each time. Further, the inhibition of growth at 0.01 µM in the data set with PC-3 [1] is less than 20%. Also, the pEC50 in data set [2] was less than 4.00. The “growth inhibition (GI)” value in the data set with HT-29 [3] was “inactive”. Moreover, the Activity in the data set on Caenorhabditis elegans [6] is listed as 0.7%. Moreover, in the data set on Caenorhabditis elegans [7], the outcome was inactive. In the data set with PC-3 [4], the inhibition of growth at 10 µM is less than 20%. The CC50 at 96 h in data set [5] is more than 100 µM.
Regarding `CCC(C)C(=O)c1c(O)cc(O)c(C/C=C(\C)CCC=C(C)C)c1O` (configuration not stated), the MIC with Escherichia coli, in the data set on Staphylococcus aureus and with Enterococcus faecalis was more than 1 µg/mL each time. Besides, the inhibition of growth at 0.01 µM with PC-3 [1] was less than 20%. For the same compound, in data set [2], the pEC50 is less than 4.57. In the data set with HT-29 [3], the “growth inhibition (GI)” value is “inactive”. Also, the Activity in the data set with Caenorhabditis elegans [6] came out at 37%. Besides, the result in the data set on Caenorhabditis elegans [7] was inactive. The inhibition of growth at 10 µM in the data set with PC-3 [4] was 20%. Moreover, the CC50 at 96 h in data set [5] worked out at 26.7 µM.
`c1ccc2[nH]c(-c3cscn3)nc2c1` [THIABENDAZOLE]: in the data set on Caenorhabditis elegans [6], the Activity worked out at 19%.
Take `CCC(C)C(=O)c1c(O)cc(O)c2c1O[C@](C)(CCC=C(C)C)[C@@H](O)C2` (some centres not stated) [EMPETRIKARINOL B]: the MIC in the data set on Escherichia coli, against Staphylococcus aureus and with Enterococcus faecalis was more than 1 µg/mL throughout. The inhibition of growth at 0.01 µM with PC-3 [1] is less than 20%. Also, the negative logarithm of the EC50 (pEC50) in [2] is less than 4.35. Also, the “growth inhibition (GI)” value in the data set on HT-29 [3] was “inactive”. Also, in the data set on Caenorhabditis elegans [6], the Activity is given as 0.7%. In the data set with Caenorhabditis elegans [7], the result was inactive. Besides, the inhibition of growth at 10 µM in the data set on PC-3 [4] is less than 20%. Besides, in data set [5], the CC50 at 96 h was found to be 45 µM.
